Laboratory results as given in ChEMBL document CHEMBL3885881, “DrugMatrix”.

Species: Rattus norvegicus
Experiment: DrugMatrix - Regimen: Daily Repeat
Format: toxicity, organism-based, Sprague-Dawley
Design: regimen Daily Repeat, gender Male, age 6-8 weeks
Settings: in vivo, po, route oral GAVAGE, […]; for ABSOLUTE BASOPHIL / ABSOLUTE EOSINOPHIL / ABSOLUTE LYMPHOCYTE / ABSOLUTE MONOCYTE / ABSOLUTE SEGMENTED NEUTROPHIL / BASOPHIL / EOSINOPHIL / ERYTHROCYTE COUNT / HEMATOCRIT / HEMOGLOBIN / LEUKOCYTE COUNT / LYMPHOCYTE / MEAN CORPUSCULAR HEMOGLOBIN / MEAN CORPUSCULAR HEMOGLOBIN CONCENTRATION / MEAN CORPUSCULAR VOLUME / MONOCYTE / NEUTROPHIL / NUCLEATED RED BLOOD CELLS / PLATELET COUNT: tissue Blood
[1] = 0 mg/kg, 72 h, dose level Control, time 3 day
[2] = 0 mg/kg, 72 h, tissue Plasma, dose level Control, time 3 day
[3] = 0 mg/kg, 120 h, dose level Control, time 5 day
[4] = 0 mg/kg, 120 h, tissue Plasma, dose level Control, time 5 day
[5] = 0.3 mg/kg, 72 h, dose level Low, time 3 day
[6] = 0.3 mg/kg, 72 h, tissue Plasma, dose level Low, time 3 day

C[C@]12CC[C@@H]3c4ccc(O)cc4CC[C@H]3[C@@H]1CC[C@@H]2O [ESTRADIOL]
ABSOLUTE BASOPHIL [1]: 0 CELLS/uL
ABSOLUTE EOSINOPHIL [1]: 41.83 CELLS/uL
ABSOLUTE LYMPHOCYTE [1]: 8545.5 CELLS/uL
ABSOLUTE MONOCYTE [1]: 240 CELLS/uL
ABSOLUTE SEGMENTED NEUTROPHIL [1]: 906 CELLS/uL
BASOPHIL [1]: 0%
EOSINOPHIL [1]: 0.33%
ERYTHROCYTE COUNT [1]: 5.6 x10E6/uL
HEMATOCRIT [1]: 35.4%
HEMOGLOBIN [1]: 13.42 G/DL
LEUKOCYTE COUNT [1]: 9.73 x10E3/uL
LYMPHOCYTE [1]: 87.83%
MEAN CORPUSCULAR HEMOGLOBIN [1]: 23.98 pg
MEAN CORPUSCULAR HEMOGLOBIN CONCENTRATION [1]: 37.92 G/DL
MEAN CORPUSCULAR VOLUME [1]: 63.3 fL
MONOCYTE [1]: 2.5%
NEUTROPHIL [1]: 9.33%
NUCLEATED RED BLOOD CELLS [1]: 0 /100WBC
PLATELET COUNT [1]: 1032 x10E3/uL
ALANINE AMINOTRANSFERASE [2]: 72.83 u/L
ALBUMIN [2]: 4 G/DL
ALKALINE PHOSPHATASE [2]: 322.83 u/L
ASPARTATE AMINOTRANSFERASE [2]: 102.67 u/L
BLOOD UREA NITROGEN [2]: 12 mg/dL
CARBON DIOXIDE [2]: 34.33 mmol/L
CHLORIDE [2]: 97.67 MEQ/L
CHOLESTEROL [2]: 82.5 mg/dL
CREATINE PHOSPHOKINASE [2]: 410.33 u/L
CREATININE [2]: 0.18 mg/dL
GLUCOSE [2]: 164.5 mg/dL
LACTATE DEHYDROGENASE [2]: 119.5 u/L
LIPASE [2]: 11.83 u/L
PHOSPHORUS [2]: 9.52 mg/dL
POTASSIUM [2]: 5.56 MEQ/L
SODIUM [2]: 142.48 MEQ/L
TOTAL BILIRUBIN [2]: 0.18 mg/dL
TOTAL PROTEIN [2]: 5.77 G/DL
URIC ACID [2]: 0.48 mg/dL
ABSOLUTE BASOPHIL [3]: 0 CELLS/uL
ABSOLUTE EOSINOPHIL [3]: 0 CELLS/uL
ABSOLUTE LYMPHOCYTE [3]: 9065 CELLS/uL
ABSOLUTE MONOCYTE [3]: 341.33 CELLS/uL
ABSOLUTE SEGMENTED NEUTROPHIL [3]: 527 CELLS/uL
BASOPHIL [3]: 0%
EOSINOPHIL [3]: 0%
ERYTHROCYTE COUNT [3]: 5.25 x10E6/uL
HEMATOCRIT [3]: 34.08%
HEMOGLOBIN [3]: 13.5 G/DL
LEUKOCYTE COUNT [3]: 9.93 x10E3/uL
LYMPHOCYTE [3]: 91.17%
MEAN CORPUSCULAR HEMOGLOBIN [3]: 25.7 pg
MEAN CORPUSCULAR HEMOGLOBIN CONCENTRATION [3]: 39.62 G/DL
MEAN CORPUSCULAR VOLUME [3]: 64.93 fL
MONOCYTE [3]: 3.33%
NEUTROPHIL [3]: 5.5%
NUCLEATED RED BLOOD CELLS [3]: 0 /100WBC
PLATELET COUNT [3]: 1077.5 x10E3/uL
ALANINE AMINOTRANSFERASE [4]: 57.83 u/L
ALKALINE PHOSPHATASE [4]: 319.17 u/L
ASPARTATE AMINOTRANSFERASE [4]: 83.33 u/L
BLOOD UREA NITROGEN [4]: 13.67 mg/dL
CARBON DIOXIDE [4]: 30.83 mmol/L
CHLORIDE [4]: 98.33 MEQ/L
CHOLESTEROL [4]: 64.83 mg/dL
CREATINE PHOSPHOKINASE [4]: 263.67 u/L
CREATININE [4]: 0.2 mg/dL
GLUCOSE [4]: 182.83 mg/dL
LACTATE DEHYDROGENASE [4]: 124 u/L
LIPASE [4]: 10.5 u/L
PHOSPHORUS [4]: 10 mg/dL
POTASSIUM [4]: 5.78 MEQ/L
SODIUM [4]: 142.48 MEQ/L
TOTAL BILIRUBIN [4]: 0.2 mg/dL
TOTAL PROTEIN [4]: 6 G/DL
URIC ACID [4]: 0.7 mg/dL
ABSOLUTE BASOPHIL [5]: 0 CELLS/uL
ABSOLUTE EOSINOPHIL [5]: 0 CELLS/uL
ABSOLUTE LYMPHOCYTE [5]: 8342 CELLS/uL
ABSOLUTE MONOCYTE [5]: 154.33 CELLS/uL
ABSOLUTE SEGMENTED NEUTROPHIL [5]: 637 CELLS/uL
BASOPHIL [5]: 0%
EOSINOPHIL [5]: 0%
ERYTHROCYTE COUNT [5]: 5.44 x10E6/uL
HEMATOCRIT [5]: 33.83%
HEMOGLOBIN [5]: 13.07 G/DL
LEUKOCYTE COUNT [5]: 9.13 x10E3/uL
LYMPHOCYTE [5]: 91.67%
MEAN CORPUSCULAR HEMOGLOBIN [5]: 24.07 pg
MEAN CORPUSCULAR HEMOGLOBIN CONCENTRATION [5]: 38.63 G/DL
MEAN CORPUSCULAR VOLUME [5]: 62.23 fL
MONOCYTE [5]: 1.67%
NEUTROPHIL [5]: 6.67%
NUCLEATED RED BLOOD CELLS [5]: 0 /100WBC
PLATELET COUNT [5]: 824 x10E3/uL
ALANINE AMINOTRANSFERASE [6]: 57.33 u/L
ALKALINE PHOSPHATASE [6]: 430 u/L
ASPARTATE AMINOTRANSFERASE [6]: 82.67 u/L
BLOOD UREA NITROGEN [6]: 13.67 mg/dL
CARBON DIOXIDE [6]: 34 mmol/L
CHLORIDE [6]: 97.67 MEQ/L
CHOLESTEROL [6]: 68 mg/dL
CREATINE PHOSPHOKINASE [6]: 290.33 u/L
CREATININE [6]: 0.16 mg/dL
GLUCOSE [6]: 175 mg/dL
LACTATE DEHYDROGENASE [6]: 124 u/L
LIPASE [6]: 11 u/L
PHOSPHORUS [6]: 9.93 mg/dL
POTASSIUM [6]: 5.76 MEQ/L
SODIUM [6]: 142.13 MEQ/L
TOTAL BILIRUBIN [6]: 0.23 mg/dL
URIC ACID [6]: 0.37 mg/dL
